Measurements taken from patent publication US9499535B2, “Kinase inhibitors” (ORIGENIS GMBH, priority 2011, dated 2016).

Molecular target: T1, SYK kinase (Homo sapiens, UniProt P43405)
T1 construct: purchased Invitrogen, Carlsbad
Test: SYK assay (OMNIA Kinase Assay, Invitrogen)
Assay type: biochemical
Conditions: apparent Ki calculated from the IC50 using the Cheng-Prusoff equation; 1 mM ATP, 10 μM Peptide Substrate; read-out: SYK Activities: Ki
Procedure: In the assay OMNIA® KINASE ASSAY by Invitrogen Corporation (Carlsbad) the effect of invention of a compound on the phosphorylation is determined by measurement of fluorescence intensity of a chelation-enhanced fluorophore called SOX. Upon phosphorylation of the peptide by the kinase of interest, Mg2+ is chelated to form a bridge between the SOX moiety and the phosphate group that is transferred to the specific tyrosine on the peptide. The fluorescence intensity is directly proportional to the amount of peptide phosphorylation.
To the wells of an 384 well small volume plate (Greiner, Frickenhausen) are added (i) the compound under test in 5% DMSO/distilled water (2 μl), (ii) 16 μl of the master mix containing ATP, DTT, Kinase Reaction Buffer, Omina Peptide Substrate Tyr 7 resulting in a final concentration of 1 mM ATP, 0.2 mM DTT and 10 μM Peptide Substrate.
The Master Mix and the assay plate was incubated to reaction temperature before the measurement (30° C.). The reaction was started with addition of (iii) 2 μl 4 μg/ml SYK kinase (Invitrogen, Carlsbad). During measurement fluorescence intensitiy readings were collected using a TECAN M1000 at a wavelength of λex 360/λem 485 nm every 30 s for 30 minutes. The reaction velocity was plotted versus the inhibitor concentration to determine the IC50 using XLFit 5.0 (IDBS, Guildford) to fit to a sigmoidal dose response curve, and the apparent Ki values were calculated from the IC50 using the Cheng-Prusoff equation (Cheng, Y.; Prusoff, W. H. Biochem. Pharmacol. 22, 3099-3108, 1973).

| SMILES | Ki |
| --- | --- |
| Cc1nsc2nc(Nc3ccc(N4CCN(C)CC4)cc3)c3n[nH]cc3c12 [Example #220, [4-(4-Methyl-piperazin-1-yl)-phenyl]-(1-methyl-7H-3-thia-2,4,6,7-tetraaza-as-indacen-5-yl)-amine] | 100 to 1000 nM |
| c1cncc(Nc2nc3ccccc3c3cn[nH]c23)c1 [Example #23, (3H-Pyrazolo[3,4-c]quinolin-4-yl)-pyridin-3-yl-amine] | 100 to 1000 nM |
| COc1ccc2nc(Nc3ccc(F)c(F)c3)c3n[nH]cc3c2c1 [Example #311, N-(3,4-difluorophenyl)-8-methoxy-2H-pyrazolo[3,4-c]quinolin-4-amine] | 10 to 100 nM |
| N#Cc1ccc2nc(Nc3ccc4cn[nH]c4c3)c3n[nH]cc3c2c1 [Example #197, 4-(1H-Indazol-6-ylamino)-2H-pyrazolo[3,4-c]quinoline-8-carbonitrile] | < 10 nM |
| COc1ccc2nc(Nc3cccc(OC)c3OC)c3n[nH]cc3c2c1 [Example #331, N-(2,3-dimethoxyphenyl)-8-methoxy-2H-pyrazolo[3,4-c]quinolin-4-amine] | 100 to 1000 nM |
| CN1CCN(c2ccc(Nc3nc4ccccc4c4c([N+](=O)[O-])[nH]nc34)cc2)CC1 [Example #214, [4-(4-Methyl-piperazin-1-yl)-phenyl]-(1-nitro-2H-pyrazolo[3,4-c]quinolin-4-yl)-amine] | 100 to 1000 nM |
| FC(F)(F)c1cccc(Nc2nc3ccccc3c3c[nH]nc23)c1 [Example #2, (2H-Pyrazolo[3,4-c]quinolin-4-yl)-(3-trifluoromethyl-phenyl)-amine] | 100 to 1000 nM |
| O=C1COc2ccc(Nc3nc4cc(F)ccc4c4cn[nH]c34)cc2N1 [Example #334, 6-((7-fluoro-3H-pyrazolo[3,4-c]quinolin-4-yl)amino)-2H-benzo[b][1,4]oxazin-3(4H)-one] | 10 to 100 nM |
| COc1ccc2nc(Nc3ccc4[nH]ccc4c3)c3[nH]ncc3c2c1 [Example #72, (1H-Indol-5-yl)-(8-methoxy-3H-pyrazolo[3,4-c]quinolin-4-yl)-amine] | 100 to 1000 nM |
| Cc1cc(Nc2nc3ccccc3c3c[nH]nc23)cc2cn[nH]c12 [Example #8, (7-Methyl-1H-indazol-5-yl)-(2H-pyrazolo[3,4-c]quinolin-4-yl)-amine] | 100 to 1000 nM |
| COc1ccc2nc(Nc3cccc(S(F)(F)(F)(F)F)c3)c3n[nH]cc3c2c1 [Example #309, 8-methoxy-N-(3-(pentafluorosulfanyl)phenyl)-2H-pyrazolo[3,4-c]quinolin-4-amine] | 100 to 1000 nM |
| COc1ccc2nc(Nc3ccc([N+](=O)[O-])cc3)c3n[nH]cc3c2c1 [Example #318, 8-methoxy-N-(4-nitrophenyl)-2H-pyrazolo[3,4-c]quinolin-4-amine] | < 10 nM |
| Brc1ccc2nc(Nc3ccc(N4CCCCC4)cc3)c3n[nH]cc3c2c1 [Example #83, (8-Bromo-2H-pyrazolo[3,4-c]quinolin-4-yl)-(4-piperidin-1-yl-phenyl)-amine] | 100 to 1000 nM |
| COc1ccc(Nc2nc3ccc(OC)cc3c3c[nH]nc23)c(OC)c1 [Example #332, N-(2,4-dimethoxyphenyl)-8-methoxy-2H-pyrazolo[3,4-c]quinolin-4-amine] | 100 to 1000 nM |
| COc1ccc(Nc2nc3ccccc3c3c[nH]nc23)cn1 [Example #25, (6-Methoxy-pyridin-3-yl)-(2H-pyrazolo[3,4-c]quinolin-4-yl)-amine] | 100 to 1000 nM |
| COc1ccc2nc(Nc3ccc(C(=O)N4CCCC4)cc3)c3n[nH]cc3c2c1 [Example #231, [4-(8-Methoxy-2H-pyrazolo[3,4-c]quinolin-4-ylamino)-phenyl]-pyrrolidin-1-yl-methanone] | 100 to 1000 nM |
| COc1ccc2c(c1)nc(Nc1ccc3c(c1)OCCO3)c1n[nH]cc12 [Example #265, (2,3-Dihydro-benzo[1,4]dioxin-6-yl)-(7-methoxy-2H-pyrazolo[3,4-c]quinolin-4-yl)-amine] | 10 to 100 nM |

| SMILES | Ki |
| --- | --- |
| COc1ccc2nc(Nc3ccc(-n4nccn4)cc3)c3n[nH]cc3c2c1 [Example #345, N-(4-(2H-1,2,3-triazol-2-yl)phenyl)-8-methoxy-2H-pyrazolo[3,4-c]quinolin-4-amine] | 100 to 1000 nM |
| Fc1ccc2c(c1)nc(Nc1ccc(N3CCOCC3)cc1)c1[nH]ncc12 [Example #335, 7-fluoro-N-(4-morpholinophenyl)-3H-pyrazolo[3,4-c]quinolin-4-amine] | 10 to 100 nM |
| COc1ccc2nc(Nc3ccc(N4CCOCC4)cc3C)c3n[nH]cc3c2c1 [Example #191, (8-Methoxy-2H-pyrazolo[3,4-c]quinolin-4-yl)-(2-methyl-4-morpholin-4-yl-phenyl)-amine] | 100 to 1000 nM |
| COc1ccc2nc(Nc3nc(C)cs3)c3n[nH]cc3c2c1 [Example #157, (8-Methoxy-2H-pyrazolo[3,4-c]quinolin-4-yl)-(4-methyl-thiazol-2-yl)-amine] | 100 to 1000 nM |
| COc1ccc2nc(Nc3ccc(N4CCCC4)cc3)c3n[nH]cc3c2c1 [Example #79, (8-Methoxy-2H-pyrazolo[3,4-c]quinolin-4-yl)-(4-pyrrolidin-1-yl-phenyl)-amine] | 100 to 1000 nM |
| O=C(c1ccc(Nc2nc3cc(F)ccc3c3cn[nH]c23)cc1)N1CCCC1 [Example #342, (4-((7-fluoro-3H-pyrazolo[3,4-c]quinolin-4-yl)amino)phenyl)(pyrrolidin-1-yl)methanone] | 100 to 1000 nM |
| Cn1ncc2ccc(Nc3nc4ccc(Br)cc4c4c[nH]nc34)cc21 [Example #35, (8-Bromo-2H-pyrazolo[3,4-c]quinolin-4-yl)-(1-methyl-1H-indazol-6-yl)-amine] | 100 to 1000 nM |
| c1ccc2cc(Nc3nc4ccccc4c4cn[nH]c34)ncc2c1 [Example #30, Isoquinolin-3-yl-(3H-pyrazolo[3,4-c]quinolin-4-yl)-amine] | 100 to 1000 nM |
| c1ccc2c(c1)nc(Nc1ccc3[nH]cnc3c1)c1n[nH]cc12 [Example #17, (1H-Benzoimidazol-5-yl)-(2H-pyrazolo[3,4-c]quinolin-4-yl)-amine] | 100 to 1000 nM |
| Brc1ccc2nc(Nc3ccc4[nH]ccc4c3)c3n[nH]cc3c2c1 [Example #99, (8-Bromo-2H-pyrazolo[3,4-c]quinolin-4-yl)-(1H-indol-5-yl)-amine] | 100 to 1000 nM |
| COc1ccc(Nc2nc3ccccc3c3c(C(F)(F)F)[nH]nc23)cc1OC [Example #210, (3,4-Dimethoxy-phenyl)-(1-trifluoromethyl-2H-pyrazolo[3,4-c]quinolin-4-yl)-amine] | 100 to 1000 nM |
| Cn1ncc2ccc(Nc3nc4ccccc4c4c[nH]nc34)cc21 [Example #24, (1-Methyl-1H-indazol-6-yl)-(2H-pyrazolo[3,4-c]quinolin-4-yl)-amine] | 100 to 1000 nM |
| Cc1nsc2nc(Nc3ccc4cn[nH]c4c3)c3n[nH]cc3c12 [Example #219, (1H-Indazol-6-yl)-(1-methyl-7H-3-thia-2,4,6,7-tetraaza-as-indacen-5-yl)-amine] | 10 to 100 nM |
| N#Cc1ccc2nc(Nc3ccc(N4CCOCC4)cc3)c3n[nH]cc3c2c1 [Example #217, 4-(4-Morpholin-4-yl-phenylamino)-2H-pyrazolo[3,4-c]quinoline-8-carbonitrile] | < 10 nM |
| COc1ccc2nc(Nc3ccc(NC(=O)Nc4cccc(C)c4)cc3)c3n[nH]cc3c2c1 [Example #289, 1-(4-((8-methoxy-2H-pyrazolo[3,4-c]quinolin-4-yl)amino)phenyl)-3-(m-tolyl)urea] | 10 to 100 nM |
| FC(F)(F)c1[nH]nc2c(Nc3ccc4cn[nH]c4c3)nc3ccccc3c12 [Example #212, (1H-Indazol-6-yl)-(1-trifluoromethyl-2H-pyrazolo[3,4-c]quinolin-4-yl)-amine] | 100 to 1000 nM |
